Source: patent US11203576B2, “Aurora kinase and Janus kinase inhibitors for prevention of graft versus host disease” (H. LEE MOFFITT CANCER CENTER AND RESEARCH INSTITUTE, INC., priority 2016, dated 2021)

Assays:
[1] = tested on: T-cells allostimulated by dendritic cells (DC); test: Allogeneic mixed leukocyte reaction (alloMLR), T-cell proliferation; type: cell-based, human
Experimental: Bulk donor T-cells were allostimulated with allogeneic DCs (DC:T-cell ratio of 1:30) as previously described (OneBlood, Tampa, Fla.)(15, 16, 20). […] As indicated, alloMLRs consisting of Treg depleted, naïve CD4^+ T-cells (Miltenyi Biotec Inc, San Diego, Calif.) were treated with a combination of ARL67156 (CD39 inhibitor, 125 μM, Sigma), AJI, or DMSO on day 0 to study the role of CD39 and ATP in this system. T-cell proliferation was measured on day 5 by a colorimetric assay (CellTiter 96 Aqueous One Solution Cell Proliferation Assay [MTS]; or CellTiter Blue, Promega, Madison, Wis.). Absorbance/optical density (OD) was analyzed at 490 nm or 590 nm, respectively. Proliferation (%)=(OD treated alloMLR−OD T-cells alone)/(OD DMSO alloMLR−OD T-cells alone)×100.

STAT3 (target of JAK2) = test: STAT3 phosphorylation in T-cells (flow cytometry); type: cell-based, human; details: in vitro, DC- or IL-6-stimulated, vs DMSO
Experimental: IL-6-induced pSTAT3 or IL-2-induced pSTAT5 (Y694) was measured by flow cytometry.

U937 cells = test: CTL generation and tumor lysis assays; type: cell-based, human; details: NSG mice, 50 mg/kg daily, irradiated U937 on days 0 and +7, vs vehicle; listed as AJI-100
Experimental: NSG mice were transplanted with human PBMCs as described above, and treated with either AJI-100 (50 mg/kg daily) or vehicle control. Additionally, recipient mice received an inoculum of irradiated U937 cells (ATCC, 10^7/mouse) on days 0 and +7. Mice were euthanized between days +10 to +12, spleens were harvested, and human CD8^+ T-cells were isolated by magnetic bead separation. Fresh U937 target cells were labeled with Calcein-AM for 30 minutes, washed, and then cultured with the purified CD8^+ T-cells at varying effector to target ratios for 4 hours at 37° C. No additional drugs were added during this final culture. […] Percent lysis was calculated as follows: [(test fluorescence−spontaneous fluorescence)/(maximum fluorescence−spontaneous fluorescence)]×100.

[2] = tested on: 5′ AMP activated protein kinase (AMPK); test: Kinase target screen, panel of 140 kinases; type: biochemical
Experimental: (§1) Allogeneic mixed leukocyte reactions (alloMLRs) are standard assays used to assess human T cell proliferation against polyclonal or antigen-specific stimuli. In alloMLRs consisting of human T cells and allogeneicmonocyte-derived dendritic cells (DCs), the JAK2 inhibitor TG101348 reduced alloreactive T cell proliferation at concentrations of 350 nM and greater as previously reported (FIG. 9A). […] Synergistic suppression of T cells allostimulated by DCs was achieved when TG101348 and alisertib were added together at a ratio of 1:5, respectively, with a calculated combination index (CI) of <1 using the Chou-Talalay method (FIG. 9A). […] The chemical analogs AJI-214 and AJI-100 were designed and synthesized at the Moffitt Cancer Center and shown to inhibit Aurora kinase A and JAK2 with similar potency. […] Because AJI-100 is tolerated in mouse models, a kinase target screen was performed on AJI-100 to verify its activity against Aurora kinase A and JAK2 among a panel of 140 kinases.

Aurora kinase A = target: T1, Aurora kinase A (Homo sapiens, UniProt O14965); test: Kinase target screen, panel of 140 kinases; type: biochemical
T1 sequence (O14965 1-403): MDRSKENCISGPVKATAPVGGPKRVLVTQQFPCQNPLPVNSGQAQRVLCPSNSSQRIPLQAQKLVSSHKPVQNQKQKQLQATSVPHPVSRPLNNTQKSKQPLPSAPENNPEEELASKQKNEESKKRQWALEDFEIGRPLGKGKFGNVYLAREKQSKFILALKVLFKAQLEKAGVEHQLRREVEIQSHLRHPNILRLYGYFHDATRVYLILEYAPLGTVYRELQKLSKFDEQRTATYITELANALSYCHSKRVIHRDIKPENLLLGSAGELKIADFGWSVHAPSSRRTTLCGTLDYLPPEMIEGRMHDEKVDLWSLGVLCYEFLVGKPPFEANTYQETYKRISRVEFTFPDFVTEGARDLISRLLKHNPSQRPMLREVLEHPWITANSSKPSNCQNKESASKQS
Experimental: as §1

Aurora kinase B = Aurora kinase B (Homo sapiens, UniProt Q96GD4); test: Kinase target screen, panel of 140 kinases; type: biochemical; details: compared with alisertib
Experimental: as §1

JAK2 = JAK2 (Homo sapiens, UniProt O60674); test: Kinase target screen, panel of 140 kinases; type: biochemical
Experimental: as §1

[3] = tested on: human skin graft rejection by allogeneic PBMC; test: Human skin xenograft rejection in NSG mice; type: in vivo; details: 50 mg/kg daily i.p., + PBMCs, day +21
Experimental: Using the nondiagnostic mastectomy skin from consenting donors, a 1×1 cm skin graft was transplanted onto immunodeficient NSG mice dorsally. After 30 days of healing, 5×10^6 peripheral blood mononuclear cells (PBMC) from an HLA-disparate random donor was given by i.p. injection. A cohort of mice only received a skin graft without PBMCs, as negative rejection controls. The transplanted mice were treated with AJI-100 (50 mg/kg), a dual JAK2/Aurora A kinase inhibitor, or vehicle daily by i.p. injection. Mice were humanely euthanized on day +21 to assess human anti-human skin rejection pathology. […] Conversely, skin grafts from the mice who received Vehicle+PBMCs show diffuse lymphocytic infiltration of the dermis with exocytosis, a disrupted dermal-epidermal junction, and hyperkeratosis (grade III, FIG. 15B).

Solubility = type: physicochemical; details: relative to the ortho-chloro analogue
Bioavailability = details: in vivo

Sequence of Aurora kinase B (Q96GD4 whole entry): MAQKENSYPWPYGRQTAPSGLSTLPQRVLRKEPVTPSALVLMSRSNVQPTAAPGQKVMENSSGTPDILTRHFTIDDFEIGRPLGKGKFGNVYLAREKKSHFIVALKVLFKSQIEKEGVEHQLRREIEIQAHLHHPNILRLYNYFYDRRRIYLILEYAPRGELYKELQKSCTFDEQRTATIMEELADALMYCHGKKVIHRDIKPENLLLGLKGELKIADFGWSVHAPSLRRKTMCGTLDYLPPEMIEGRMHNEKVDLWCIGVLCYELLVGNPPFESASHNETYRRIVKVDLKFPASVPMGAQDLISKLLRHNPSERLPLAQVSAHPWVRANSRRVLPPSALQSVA
Sequence of JAK2 (O60674 whole entry): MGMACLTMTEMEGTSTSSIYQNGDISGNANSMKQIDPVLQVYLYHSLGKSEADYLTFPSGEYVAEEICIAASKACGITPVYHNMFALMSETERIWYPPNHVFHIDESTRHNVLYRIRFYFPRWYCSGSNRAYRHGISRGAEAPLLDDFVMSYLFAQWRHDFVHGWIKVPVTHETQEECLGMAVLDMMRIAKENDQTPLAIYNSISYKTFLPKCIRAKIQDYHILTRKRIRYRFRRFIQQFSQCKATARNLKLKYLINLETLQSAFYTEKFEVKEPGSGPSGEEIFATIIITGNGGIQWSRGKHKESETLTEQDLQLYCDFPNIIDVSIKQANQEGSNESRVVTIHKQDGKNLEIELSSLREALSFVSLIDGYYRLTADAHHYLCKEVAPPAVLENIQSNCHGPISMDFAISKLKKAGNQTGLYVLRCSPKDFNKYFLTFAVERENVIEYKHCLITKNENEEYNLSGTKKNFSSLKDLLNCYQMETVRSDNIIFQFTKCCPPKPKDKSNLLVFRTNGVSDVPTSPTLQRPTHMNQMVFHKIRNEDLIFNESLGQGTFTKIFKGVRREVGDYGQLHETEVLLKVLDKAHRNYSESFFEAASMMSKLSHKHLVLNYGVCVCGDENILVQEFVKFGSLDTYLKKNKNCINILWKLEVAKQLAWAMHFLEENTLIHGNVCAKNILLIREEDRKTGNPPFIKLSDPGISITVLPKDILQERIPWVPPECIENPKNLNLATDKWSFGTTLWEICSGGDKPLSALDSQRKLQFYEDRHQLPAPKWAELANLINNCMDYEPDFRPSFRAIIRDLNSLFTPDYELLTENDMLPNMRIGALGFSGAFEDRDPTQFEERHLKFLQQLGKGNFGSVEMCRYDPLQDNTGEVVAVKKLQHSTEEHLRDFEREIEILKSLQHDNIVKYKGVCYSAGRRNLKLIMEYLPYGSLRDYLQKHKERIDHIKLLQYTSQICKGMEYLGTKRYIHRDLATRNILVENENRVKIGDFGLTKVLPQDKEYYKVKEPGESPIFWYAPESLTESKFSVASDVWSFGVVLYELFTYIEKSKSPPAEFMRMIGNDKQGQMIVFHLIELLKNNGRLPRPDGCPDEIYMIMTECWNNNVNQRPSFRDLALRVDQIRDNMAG

NC(=O)c1ccc(Nc2ncc(F)c(Nc3ccccc3)n2)cc1 [bisanilinopyrimidine (II), 5-Fluoro-N4-phenyl-N2-[4-(4-carboxamide)phenyl]pyrimidine-2,4-diamine]
IC50 ([1]; Homo sapiens, single agent added once on day 0, proliferation on day 5, DC:T-cell ratio 1:30, read-out: IC50, T-cell proliferation in alloMLR): 200 nM
suppression of T cells in alloMLRs ([1]; single agent, nanomolar concentrations, vs DMSO): significant suppression
STAT3 (pSTAT3 Y705) phosphorylation in T-cells (STAT3 (target of JAK2)): less STAT3 phosphorylation
STAT3 (pSTAT3 Y705) phosphorylation in T-cells (STAT3 (target of JAK2); listed as AJI-100): reducing the phosphorylation
in vivo generation of U937-specific CTL and killing of U937 targets (U937 cells): did not inhibit CTL generation
inhibition of AMPK [2]: inhibits
inhibition of Aurora kinase A in kinase panel (Aurora kinase A): among the top three kinases inhibited
ratio of Aurora kinase A to kinase B inhibition (Aurora kinase B): greater than alisertib
suppression of Aurora kinase B (Aurora kinase B): slightly more potent suppression of Aurora kinase B than alisertib
inhibition of JAK2 in kinase panel (JAK2): among the top three kinases inhibited
skin graft rejection grade (Bejarano scoring system) [3]: grade I
solubility (Solubility): enhancing its solubility
bioavailability (Bioavailability): superior bioavailability
